# Measured values reported in ChEMBL document CHEMBL1140635, “Computational modeling tools for the design of potent antimalarial bisbenzamidines: overcoming the antimalarial potential of pentamidine” (Bioorg Med Chem, 2007).
# Test system: Plasmodium falciparum
# Assay: Antiplasmodial activity against chloroquine-sensitive Plasmodium falciparum D6 by LDH reporter assay
# Assay type: functional, organism-based
row,SMILES,IC50 [nM]
1,N=C(N)c1ccc(NC(=O)CCCCC(=O)Nc2ccc(C(=N)N)cc2)cc1,640
2,C(=C1CCN(c2ccc(C3=NCCN3)cc2)CC1)c1ccc(C2=NCCN2)cc1,840
3,N=C(N)c1ccc(OCc2ccccc2COc2ccc(C(=N)N)cc2)cc1,313
4,CCCCCCCCCNC(=N)c1ccc(N2CCN(c3ccc(C(=N)NCCCCCCCCC)cc3)CC2)cc1,88
5,N=C(N)c1ccc(N2CCCN(c3ccc(C(=N)N)cc3)CC2)cc1,1600
6,N=C(NO)c1ccc(N2CCN(c3ccc(C(=N)NO)cc3)CC2)cc1,8320
7,CCC(C)CNC(=N)c1ccc(N2CCN(c3ccc(C(=N)NCC(C)CC)cc3)CC2)cc1 (centres undefined),69
8,N=C(NC1CCCCCC1)c1ccc(N2CCN(c3ccc(C(=N)NC4CCCCCC4)cc3)CC2)cc1,36
9,N=C(N)c1ccc(OCCCCCOc2ccc(C(=N)N)cc2)cc1 [PENTAMIDINE],278
10,c1cc(N2CCN(c3ccc(C4=NCCN4)cc3)CC2)ccc1C1=NCCN1,89
11,N=C(N)c1ccc(OCc2cccc(COc3ccc(C(=N)N)cc3)c2)cc1,85
12,c1cc(N2CCCN(c3ccc(C4=NCCCN4)cc3)CC2)ccc1C1=NCCCN1,5110
13,CCCCCCNC(=N)c1ccc(N2CCN(c3ccc(C(=N)NCCCCCC)cc3)CC2)cc1,35
14,CCNC(=N)c1ccc(N2CCN(c3ccc(C(=N)NCC)cc3)CC2)cc1,124
15,CCCCCCCNC(=N)c1ccc(N2CCN(c3ccc(C(=N)NCCCCCCC)cc3)CC2)cc1,48
16,N=C(N)c1ccc(OCc2ccc(COc3ccc(C(=N)N)cc3)cc2)cc1,114
17,c1ccc2[nH]c(-c3ccc(N4CCN(c5ccc(-c6nc7ccccc7[nH]6)cc5)CC4)cc3)nc2c1,4880

row,SMILES,IC50 [nM]
1,CC(C)CCNC(=N)c1ccc(N2CCN(c3ccc(C(=N)NCCC(C)C)cc3)CC2)cc1,42
2,c1cc(N2CCN(c3ccc(C4=NCCCN4)cc3)CC2)ccc1C1=NCCCN1,106
3,CNC(=N)c1ccc(N2CCN(c3ccc(C(=N)NC)cc3)CC2)cc1,862
4,N=C(NC1CC1)c1ccc(N2CCCN(c3ccc(C(=N)NC4CC4)cc3)CC2)cc1,306
5,c1cc(C2=NCCN2)ccc1CC1CCN(c2ccc(C3=NCCN3)cc2)CC1,402
6,N=C(NC1CCC1)c1ccc(N2CCN(c3ccc(C(=N)NC4CCC4)cc3)CC2)cc1,7
7,CCCCCCCCCCCCNC(=N)c1ccc(N2CCN(c3ccc(C(=N)NCCCCCCCCCCCC)cc3)CC2)cc1,3890
8,CCCCCCCCCCNC(=N)c1ccc(N2CCN(c3ccc(C(=N)NCCCCCCCCCC)cc3)CC2)cc1,75
9,N=C(NC1CCCCCCC1)c1ccc(N2CCN(c3ccc(C(=N)NC4CCCCCCC4)cc3)CC2)cc1,55
10,N=C(NCCCO)c1ccc(N2CCN(c3ccc(C(=N)NCCCO)cc3)CC2)cc1,8800
11,N=C(NC1CC1)c1ccc(N2CCN(c3ccc(C(=N)NC4CC4)cc3)CC2)cc1,358
12,CCCCNC(=N)c1ccc(N2CCCN(c3ccc(C(=N)NCCCC)cc3)CC2)cc1,18
13,c1cc(N2CCCN(c3ccc(C4=NCCN4)cc3)CC2)ccc1C1=NCCN1,148
14,CCCCCCCCNC(=N)c1ccc(N2CCN(c3ccc(C(=N)NCCCCCCCC)cc3)CC2)cc1,138
15,N=C(N)c1ccc(COc2ccccc2OCc2ccc(C(=N)N)cc2)cc1,671
16,CCCCCNC(=N)c1ccc(N2CCN(c3ccc(C(=N)NCCCCC)cc3)CC2)cc1,21
17,CCCNC(=N)c1ccc(N2CCN(c3ccc(C(=N)NCCC)cc3)CC2)cc1,29
